Experimental findings from ChEMBL document CHEMBL5653631, “A Potent and Selective ULK1 Inhibitor Suppresses Autophagy and Sensitizes Cancer Cells to Nutrient Stress” (iScience, 2018) are described below.

Usually inhibition stands for the relative decrease from the control value, in per cent.

Experiment [1] deals with T1, MAPK/MAK/MRK overlapping kinase (Homo sapiens) (UniProt Q9UQ07).
T1 sequence (whole entry): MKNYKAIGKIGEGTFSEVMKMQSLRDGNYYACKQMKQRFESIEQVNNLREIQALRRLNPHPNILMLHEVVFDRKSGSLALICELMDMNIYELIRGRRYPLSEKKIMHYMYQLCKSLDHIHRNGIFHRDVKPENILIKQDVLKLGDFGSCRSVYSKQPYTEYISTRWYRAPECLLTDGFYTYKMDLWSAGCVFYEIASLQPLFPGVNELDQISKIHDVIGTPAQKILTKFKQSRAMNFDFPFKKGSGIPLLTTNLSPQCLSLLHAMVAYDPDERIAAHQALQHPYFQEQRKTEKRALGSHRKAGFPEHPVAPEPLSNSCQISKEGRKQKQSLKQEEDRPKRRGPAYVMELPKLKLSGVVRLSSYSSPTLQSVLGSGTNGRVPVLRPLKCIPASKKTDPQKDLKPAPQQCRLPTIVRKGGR
The experiment can be described thus: Inhibition of human recombinant MOK at 40 nM related to control ULK1.

The target in experiment [2] is Serine/threonine-protein kinase 24 (Homo sapiens) (UniProt Q9Y6E0). The experiment in a line: Inhibition of human recombinant MST3 at 500 nM related to control ULK1.
Experiment [3] addresses T2, Mitogen-activated protein kinase kinase kinase 5 (Homo sapiens) (UniProt Q99683).
T2 sequence (whole entry): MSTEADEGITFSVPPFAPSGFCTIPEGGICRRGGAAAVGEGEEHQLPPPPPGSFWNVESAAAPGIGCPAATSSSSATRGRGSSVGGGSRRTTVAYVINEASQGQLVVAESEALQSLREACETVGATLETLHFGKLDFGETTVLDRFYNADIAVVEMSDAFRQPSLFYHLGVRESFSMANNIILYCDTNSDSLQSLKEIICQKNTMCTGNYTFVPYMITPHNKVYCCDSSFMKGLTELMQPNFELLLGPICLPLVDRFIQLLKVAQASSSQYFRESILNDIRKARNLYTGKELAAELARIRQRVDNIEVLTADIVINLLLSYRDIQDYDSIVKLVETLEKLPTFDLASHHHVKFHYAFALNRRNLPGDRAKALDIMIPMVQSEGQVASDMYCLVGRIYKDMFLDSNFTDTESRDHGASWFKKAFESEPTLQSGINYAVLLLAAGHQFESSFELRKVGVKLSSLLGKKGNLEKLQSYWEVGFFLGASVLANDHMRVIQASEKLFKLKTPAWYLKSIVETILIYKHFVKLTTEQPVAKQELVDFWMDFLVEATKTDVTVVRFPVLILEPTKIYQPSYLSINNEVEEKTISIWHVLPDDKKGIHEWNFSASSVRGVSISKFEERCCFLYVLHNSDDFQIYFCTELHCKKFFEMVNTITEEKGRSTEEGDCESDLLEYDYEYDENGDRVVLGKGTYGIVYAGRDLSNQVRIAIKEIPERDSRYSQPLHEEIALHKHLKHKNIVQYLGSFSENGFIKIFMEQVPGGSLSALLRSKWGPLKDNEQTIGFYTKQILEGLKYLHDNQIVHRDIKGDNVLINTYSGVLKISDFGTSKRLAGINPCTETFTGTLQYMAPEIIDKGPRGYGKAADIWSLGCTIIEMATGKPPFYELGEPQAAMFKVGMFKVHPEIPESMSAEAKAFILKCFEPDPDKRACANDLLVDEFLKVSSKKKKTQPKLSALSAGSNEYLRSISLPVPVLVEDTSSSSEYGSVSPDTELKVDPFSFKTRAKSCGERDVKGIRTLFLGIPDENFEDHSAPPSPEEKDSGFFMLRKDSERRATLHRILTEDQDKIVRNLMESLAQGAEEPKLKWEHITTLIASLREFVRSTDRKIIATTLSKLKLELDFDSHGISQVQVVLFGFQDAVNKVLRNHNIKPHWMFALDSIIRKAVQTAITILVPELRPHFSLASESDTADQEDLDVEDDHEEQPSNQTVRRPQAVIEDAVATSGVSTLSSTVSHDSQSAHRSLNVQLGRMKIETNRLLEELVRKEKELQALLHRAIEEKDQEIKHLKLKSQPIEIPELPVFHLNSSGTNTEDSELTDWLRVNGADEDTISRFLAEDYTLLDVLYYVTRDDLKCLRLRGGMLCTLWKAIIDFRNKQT
The experiment in a line: Inhibition of human recombinant MAP3K5 at 15 nM in presence of ATP by radiometric assay relative to control.

SMILES strings stand for the structures.

Serine/threonine-protein kinase 24 (Homo sapiens), sequence (Q9Y6E0 whole entry, looked up): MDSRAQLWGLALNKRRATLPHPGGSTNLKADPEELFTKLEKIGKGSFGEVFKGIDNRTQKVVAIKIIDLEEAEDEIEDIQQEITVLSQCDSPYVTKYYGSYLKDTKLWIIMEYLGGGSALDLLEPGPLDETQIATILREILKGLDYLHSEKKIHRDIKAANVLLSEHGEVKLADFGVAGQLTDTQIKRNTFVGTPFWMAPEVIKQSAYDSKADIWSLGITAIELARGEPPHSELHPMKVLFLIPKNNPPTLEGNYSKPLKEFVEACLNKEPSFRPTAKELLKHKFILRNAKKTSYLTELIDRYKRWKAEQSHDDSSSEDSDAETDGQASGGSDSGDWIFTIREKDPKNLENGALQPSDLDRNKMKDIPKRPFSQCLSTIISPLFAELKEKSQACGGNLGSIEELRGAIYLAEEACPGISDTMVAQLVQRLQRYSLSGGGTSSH

`O=C(N[C@@H](C1CC1)C(F)(F)F)c1cc(-c2cnn3cc(-c4ccc(F)cc4)cnc23)cs1`: the fold change (FC) in experiment [1] is 0.

Take `CNC(=O)c1ccccc1Oc1nc(Nc2cc(OC)c(OC)c(OC)c2)ncc1Br`: the fold change (FC) in experiment [2] came out at 0.78.

For the molecule `CC(C)[C@H](NC(=O)c1cc(-c2cnn3cc(-c4ccc(OCCN5CCCCC5)cc4)cnc23)cs1)C(F)(F)F`, the inhibition in experiment [3] was 0%.
